From patent US20250255847A1, “[…]s: Novel Drugs for Triple Negative Breast Cancer” (SIMMARON RSEARCH INC, priority 2024, published 2025)

Target: T1, DNA binding activity of STAT3 (Homo sapiens, UniProt P40763)
T1 construct: endogenous in cells; host or cells: MDA-MB-468 (nuclear extract)
Assay: Electrophoretic mobility shift assay (EMSA) in nuclear extracts
Assay type: cell-based
Conditions: EGF (20 ng/mL)-stimulated MDA-MB-468 nuclear extract, SIM-1 20 nM (FIG. 9B)
Experimental: FIG. 9 illustrates an embodiment of the present invention and illustrates promoter recruitment assay of STAT3 in IL6 promoter. (A) MDA-MB-468 cells were treated with 5, 10, and 20 ng/mL doses of EGF for 5 hrs followed by immunoblot (IB) analyses of Y705 phospho and S727 phospho STAT3 in nuclear extracts. Histone 3 ([…]) IB was run as control. (B) EMSA analyses were performed in nuclear extracts of EGF (20 ng/mL)- and EGF+SIM-1 (20 nM)-treated MDA-MB-468 cells against the STAT3-specific oligonucleotide probe (Li-Cor bioscience; Cat #P/N: 829-07922) or SEQ ID NO: 1 and resolved in 6% DNA retardation gel (Invitrogen). (C) Chromatin immunoprecipitation assay was performed in the nuclear extracts of MDA-MB-468 cells treated with EGF or EGF+SIM-1 for 5 hrs. Y705P STAT3 antibody was used for chromatin immunoprecipitation and IgG precipitation was performed as a control.
Electrophoretic Mobility Shift Assay (EMSA). EMSA was performed in […] as described before. […] were treated with 25 ng/mL EGF alone or together with SIM1 (5 nM) for 5 hrs followed by nuclear fractionation with nuclear extraction kit (Abcam). […]

T1 sequence (P40763 2-770 limits assumed): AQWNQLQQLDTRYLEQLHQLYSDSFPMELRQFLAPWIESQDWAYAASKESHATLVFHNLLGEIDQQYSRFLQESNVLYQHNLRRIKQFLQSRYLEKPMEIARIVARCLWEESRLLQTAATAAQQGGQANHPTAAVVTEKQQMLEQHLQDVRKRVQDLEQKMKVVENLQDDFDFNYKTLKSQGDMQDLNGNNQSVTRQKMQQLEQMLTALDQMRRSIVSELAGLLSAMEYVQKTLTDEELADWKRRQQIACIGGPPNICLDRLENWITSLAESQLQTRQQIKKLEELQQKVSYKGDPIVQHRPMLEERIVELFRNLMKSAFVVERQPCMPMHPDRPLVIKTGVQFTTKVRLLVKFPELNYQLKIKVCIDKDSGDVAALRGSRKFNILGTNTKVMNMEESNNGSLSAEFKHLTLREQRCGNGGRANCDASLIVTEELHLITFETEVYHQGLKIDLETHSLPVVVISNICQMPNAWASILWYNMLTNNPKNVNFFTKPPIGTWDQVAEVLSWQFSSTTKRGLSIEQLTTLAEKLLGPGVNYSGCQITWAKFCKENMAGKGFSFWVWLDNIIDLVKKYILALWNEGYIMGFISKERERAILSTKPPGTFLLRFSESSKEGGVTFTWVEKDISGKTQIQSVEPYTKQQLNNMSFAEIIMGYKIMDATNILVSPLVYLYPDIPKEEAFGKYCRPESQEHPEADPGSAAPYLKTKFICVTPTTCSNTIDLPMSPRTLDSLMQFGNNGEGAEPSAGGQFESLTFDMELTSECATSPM

O=C(O)CCC(=O)NCc1csc2ccc(Cl)cc12 [SIM-1, 4-[(5-chloro-1-benzothiophen-3-yl)methylamino]-4-oxobutanoic acid]
DNA binding activity of STAT3: markedly inhibited
